# Experimental data from US6417393B1, “Phenyl derivatives containing an acidic group, their preparation and their use as chloride channel blockers” (Neurosearch A/S, priority 1996, dated 2002).
# Key:
# [1] = tested on: erythrocyte chloride channels; test: Cl- conductance (GCl) from concomitant measurements of conductive Cl- netfluxes and membrane potentials in suspensions of normal erythrocytes; type: cell-based, Human; settings: suspension of normal erythrocytes; read-out: IC50-value for block of GCl
# Text: (§1) The compounds of the present invention are potent blockers of chloride channels in normal as well as sickle cell erythrocytes.
# (§2) All dose-response experiments were therefore performed by concomitant measurements of conductive netfluxes of Cl^− (JCl) and membrane potentials (Vm) in suspensions of erythrocytes (Bennekou, P. and Christophersen, P. (1986), Flux ratio of Valinomycin—Mediated K^+ Fluxes across the Human Red Cell Membrane in the presence of the Protronophore CCCP. J. Membrane Biol. 93, 221-227. ). The membrane Cl^−-conductances were calculated by the following equation (Hodgkin, A. L. and Huxley, A. F. (1952) The components of membrane conductance in the giant axon of loligo. J. Physiol. Lond. 116, 449-472): [formula]
# (§3) where F is the Faraday constant and ECl is the Nernst potential for the Cl-ion.
# [2] = tested on: chloride channels of sickle cell erythrocytes; test: Cl- conductance (GCl) in oxygenated and deoxygenated homozygoteous sickle cell erythrocytes; type: cell-based, Human; settings: oxygenated as well as deoxygenated homozygoteous sickle cell erythrocytes; compared with normal erythrocytes
# Text: as §1, §2, §3
# [3] = tested on: erythrocytes; test: Valinomycin induced cell volume loss (relative volume of packed cells); type: cell-based; settings: valinomycin for 5 min
# Procedure: Inducing a massive water and salt loss (KCI) by addition the K^+-ionophore valinomycin to the suspension for 5 min reduced the cell volume by 26%.
# [4] = tested on: sickle erythrocytes; test: K+ flux from sickle erythrocytes, basal and deoxygenation induced (extracellular K+-concentration vs time); type: cell-based; settings: 10 μM; oxygenated sickle erythrocytes
# Text: Deoxygenation induced permeability increases of sickle cells were estimated by measuring the extracellular K^+-concentration vs time. […] The K^+ flux from oxygenated sickle erythrocytes was 2-3 times higher than from normal erythrocytes and these fluxes was accelerated 4-8 times upon deoxygenation.
# [5] = tested on: mice; test: Toxicity to mice; type: in vivo; settings: up to 150 mg/kg i.p. and i.v.
# Procedure: N-(3-Trifluoromethylphenyl)-N′-(2-carboxyphenyl) urea was non-toxic to mice at concentrations up to 150 mg/kg i.p. and i.v.
compound,measurement,setting,value
O=C(Nc1cccc(C(F)(F)F)c1)Nc1ccccc1C(=O)O [3′-Trifluoromethylphenyl-2-carboxyphenyl Urea],IC50,[1],600 nM
same,block of GCl from sickle cell erythrocytes,[2],equipotently blocked
same,IC50,"[3]; Erythrocyte, 5 min, read-out: IC50-value for reduction of valinomycin induced volume loss",1200 nM
same,cell volume loss remaining in presence of compound,[3]; volume loss without compound 26%,7%
same,basal K+-flux from sickle erythrocytes,[4],normalised
same,toxicity to mice,[5],non-toxic
